One experiment relates to Plasmodium vivax. Briefly: Antimalarial activity against Plasmodium vivax infected in human HepG2-A16 cells assessed as reduction of trophozoites level. Format: functional. The arrangement: scale not given: the % may be the effect or the level left.
For experiment [1], the system named is Plasmodium falciparum. Briefly: Antimalarial activity against chloroquine-resistant Plasmodium falciparum W2. In kind it is functional, organism-based.
In experiment [2] the test system is Plasmodium falciparum. Kind of experiment: Antimalarial activity against chloroquine-susceptible Plasmodium falciparum D6. In kind it is functional, organism-based.
The test system of experiment [3] is Plasmodium falciparum. Kind of experiment: Antimalarial activity against Plasmodium falciparum infected in intravenously dosed mice (Mus musculus) administered for 4 days. Format: functional. The conditions noted are these: iv, 96 h.
Experiment [4] concerns Plasmodium falciparum. Kind of experiment: Antimalarial activity against Plasmodium falciparum infected in perorally dosed mice (Mus musculus) administered for 4 days. In kind it is functional. The conditions noted are these: po, 96 h.
The test system of experiment [5] is Plasmodium falciparum. Kind of experiment: Antimalarial activity against chloroquine-resistant Plasmodium falciparum FCB1. Format: functional, organism-based. Particulars: FcB1/Columbia.
A short description of experiment [6]: (§1) Inhibition of Plasmodium falciparum FabG.
In experiment [7] the target is T1, Enoyl-acyl-carrier protein reductase (Plasmodium falciparum, UniProt Q965D5).
T1 sequence (Q965D5 whole entry): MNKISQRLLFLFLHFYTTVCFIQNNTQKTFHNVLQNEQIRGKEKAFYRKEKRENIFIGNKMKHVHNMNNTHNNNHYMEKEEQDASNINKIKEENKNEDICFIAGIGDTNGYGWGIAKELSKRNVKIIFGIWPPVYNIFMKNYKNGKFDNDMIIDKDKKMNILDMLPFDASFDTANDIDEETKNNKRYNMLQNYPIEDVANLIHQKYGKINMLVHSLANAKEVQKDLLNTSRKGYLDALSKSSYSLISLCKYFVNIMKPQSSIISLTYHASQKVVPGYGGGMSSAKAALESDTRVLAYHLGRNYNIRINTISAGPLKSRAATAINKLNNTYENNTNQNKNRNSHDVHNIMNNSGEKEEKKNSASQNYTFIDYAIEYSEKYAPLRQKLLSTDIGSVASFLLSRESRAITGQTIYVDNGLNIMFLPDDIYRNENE
Kind of experiment: (§2) Inhibition of Plasmodium falciparum Fabl.

Experiment [8] concerns Plasmodium falciparum. Briefly: Antimalarial activity against drug-susceptible Plasmodium falciparum NF54 infected in erythrocytes. In kind it is functional, organism-based.
In experiment [9] the test system is Plasmodium falciparum. Kind of experiment: Antimalarial activity against multidrug-resistant Plasmodium falciparum K1 infected in erythrocytes. Format: functional, organism-based.
A further experiment concerns Plasmodium berghei. Kind of experiment: Antiplasmodial activity against chloroquine-sensitive Plasmodium berghei. Format: functional, organism-based.
Experiment [10] relates to Plasmodium falciparum. Described as §1. Particulars: concentration not given here.
Experiment [11] deals with T2, Enoyl-acyl-carrier protein reductase (Plasmodium falciparum) (UniProt Q965D5).
T2 sequence (whole entry): T1 sequence (Q965D5 whole entry)
Described as §2.

Experiment [12] deals with Plasmodium falciparum. Briefly: Antimalarial activity against chloroquine-resistant Plasmodium falciparum. Format: functional, organism-based.
Experiment [13] deals with Plasmodium falciparum. Briefly: Antimalarial activity against chloroquine-sensitive Plasmodium falciparum. Format: functional, organism-based.
Experiment [14] concerns Plasmodium falciparum. Kind of experiment: Antimalarial activity against Plasmodium falciparum T9-96. In kind it is functional, organism-based.
The test system of experiment [15] is Plasmodium falciparum. Kind of experiment: Antimalarial activity against Plasmodium falciparum FCA 20. Format: functional, organism-based.
Experiment [16] deals with Plasmodium falciparum. Kind of experiment: Antimalarial activity against Plasmodium falciparum FCB1-R. Format: functional, organism-based.
For experiment [17], the system named is Plasmodium falciparum. Briefly: Antimalarial activity against Plasmodium falciparum W2. Format: functional, organism-based.
For experiment [18], the system named is Plasmodium falciparum. Kind of experiment: Antimalarial activity against Plasmodium falciparum D6. Format: functional, organism-based.
The subject of experiment [19] is Plasmodium falciparum. Briefly: Antimalarial activity against Plasmodium falciparum 3D7. In kind it is functional, organism-based.
Experiment [20] has as its system Plasmodium falciparum. Briefly: Antimalarial activity against Plasmodium falciparum after 32 hrs. Format: functional, organism-based.
The subject of experiment [21] is Plasmodium falciparum. Kind of experiment: Antimalarial activity against Plasmodium falciparum after 72 hrs. Format: functional, organism-based.
The subject of experiment [22] is Plasmodium falciparum. Briefly: Antimalarial activity against Plasmodium falciparum after 48 hrs. Format: functional, organism-based.
In experiment [23] the test system is Plasmodium falciparum. Briefly: Antimalarial activity against chloroquine-sensitive Plasmodium falciparum 3D7. In kind it is functional, organism-based.
Experiment [24] relates to Plasmodium falciparum. Kind of experiment: Antimalarial activity against Plasmodium falciparum infected in erythrocytes. In kind it is functional, organism-based.
Experiment [25] is described as follows: Cytotoxicity against erythrocytes assessed as morphological changes. Particulars: Erythrocyte. In kind it is cell-based.
Experiment [26] has as its system Plasmodium falciparum. Briefly: Antimalarial activity against Plasmodium falciparum FCR3F86. Format: functional, organism-based.
For experiment [27], the system named is Plasmodium falciparum. Briefly: Antimalarial activity against Plasmodium falciparum FCA. In kind it is functional, organism-based.
For experiment [28], the system named is Plasmodium falciparum. Briefly: Antimalarial activity against chloroquine-sensitive Plasmodium falciparum D10. Format: functional, organism-based.

≈ marks a conversion by molar mass, not a printed value.

Experimental findings from ChEMBL document CHEMBL1177693, “Antimalarials from nature” (Bioorg Med Chem, 2009) are described below.

Take `CC(CCC1(O)C[C@@H]2C[C@H]3[C@@H]4CCC5=CC(=O)CC[C@]5(C)[C@H]4CC[C@]3(C)[C@H]2[C@@H]1C)CO[C@@H]1O[C@H](CO)[C@@H](O)[C@H](O)[C@H]1O` (stereo partly specified): the Activity in the experiment on Plasmodium vivax is given as 39%.

As for `CO[C@H]1C[C@@H]([C@@H](O)[C@@](C)(OC)[C@H](C)OC)O[C@]2(O[C@](C)([C@H]3CC[C@@H]([C@H]4CC[C@H]([C@H]5O[C@](C)(O)[C@H](C)[C@@H](O)[C@@H]5C)O4)O3)[C@H](OC)[C@H]2C)[C@H]1C`, the 50% inhibitory concentration (IC50) with Plasmodium falciparum [1] and with Plasmodium falciparum [2] was 0.1 µg/mL (≈ 0.145 µM) in each case.

For the compound `C[C@H]1[C@@H](CC(COC(=O)c2cc[n+]([O-])cc2)C[C@H]2O[C@@H]3O[C@]4(C)CC[C@H]5[C@H](C)CC[C@@H]([C@H]2C)[C@@]35OO4)O[C@@H]2O[C@]3(C)CC[C@H]4[C@H](C)CC[C@@H]1[C@@]24OO3` (stereo partly specified), the ED50 in the experiment on Plasmodium falciparum [3] was found to be 0.8 mg/kg; in the experiment on Plasmodium falciparum [4], 2 mg/kg.

In turn, `O=C(Oc1cc(O)cc2c1C[C@H](O)[C@@H](c1ccc(O)c(O)c1)O2)c1cc(O)c(O)c(O)c1` returned an IC50 with Plasmodium falciparum [5] of 1200 nM.

For `C=C1C(=O)OC[C@H]1[C@@H](/C=C(\C)CC(=O)C=C(C)C)OC(C)=O`, the results for the IC50 in experiment [6] and in experiment [7] were 20 µg/mL (≈ 65.3 µM) and 65300 nM, respectively.

As for `CC(CO)CCC(=O)[C@@H](C)[C@H]1[C@H](O)C[C@H]2[C@@H]3CCC4=CC(=O)CC[C@]4(C)[C@H]3CC[C@]12C` (stereo partly specified), the Activity in the experiment on Plasmodium vivax amounted to 47%.

In the case of `COc1cc(/C=C2/Cc3c(OC(C)=O)cc(OC(C)=O)cc3O2)cc(OC)c1OC(C)=O`, the IC50 in the experiment with Plasmodium falciparum [8] worked out at 180 nM; in the experiment with Plasmodium falciparum [9], 7 nM.

In the experiment with Plasmodium berghei, `COC(C)(C)[C@@H]1C=C2C(=O)[C@H]3O[C@H]3C3C=CC(C2C(=O)/C1=C/CO)[C@H]3O` (stereo partly specified) had an ED50 of 5.2 mg/kg and a 50% inhibitory concentration (IC50) of 2.1 nM.

In the experiment with Plasmodium falciparum [10], `C=C1C(=O)OC[C@H]1[C@H](O)/C=C(\C)CC(=O)C=C(C)C` registered an inhibition of 25%. Further, the fold change (FC) in experiment [11] worked out at 5.

Consider `Cc1c2c(cc3c1C(=O)C=C(C(C)C)C3=O)C(C)(C)CCC2` [12,16-DIDEOXY AEGYPTINONE B], for which the IC50 in the experiment on Plasmodium falciparum [12] was determined as 1.4 µg/mL (≈ 4.72 µM); with Plasmodium falciparum [13] it was 1.3 µg/mL (≈ 4.39 µM).

On to `CO[C@@H]1C=C[C@@]23c4cc5c(cc4CN(C[C@@H]2O)[C@H]3C1)OCO5` [(+)-HAEMANTHAMINE], for which the 50% inhibitory concentration (IC50) in the experiment on Plasmodium falciparum [14] was found to be 0.7 µg/mL (≈ 2.32 µM).

In the experiment with Plasmodium falciparum [5], `O=C(O[C@H]1Cc2c(O)cc(O)cc2O[C@@H]1c1ccc(O)c(O)c1)c1cc(O)c(O)c(O)c1` [CATECHIN GALLATE] gave an IC50 of 1000 nM.

Take `C=Cc1c[n+]2c(c(O)c1C[C@H]1c3[nH]c4ccccc4c3CCN1C)-c1[nH]c3c([C@H]4CCCN4C)c(O)ccc3c1CC2` [CHRYSOPENTAMINE]: the IC50 in the experiment with Plasmodium falciparum [15], in the experiment with Plasmodium falciparum [16] and with Plasmodium falciparum [17] was 500 nM each time.

Consider `COc1cc(/C=C/C(=O)CC(=O)/C=C/c2ccc(O)c(OC)c2)ccc1O` [CURCUMIN], for which the concentration for half-maximal inhibition (IC50) was 3.5 µg/mL with Plasmodium falciparum [18] and 4.2 µg/mL with Plasmodium falciparum [17].

In the experiment with Plasmodium falciparum [19], `CCCCCCCc1cc(/C=C2\N=C(c3ccc[nH]3)C=C2OC)[nH]c1C` [HEPTYL PRODIGIOSIN] registered an IC50 of 70 nM.

Regarding `CC(C)=CCC/C(C)=C/CC/C(C)=C/CC[C@@]1(C)[C@H](CCCO)/C(=C(/C)C=O)CC[C@]1(C)O` [IRIDAL], the IC50 stood at 14 µg/mL (≈ 30.5 µM) with Plasmodium falciparum [20], 1.8 µg/mL (≈ 3.92 µM) in the experiment on Plasmodium falciparum [21] and 26 µg/mL (≈ 56.7 µM) with Plasmodium falciparum [22].

In the case of `COc1cc(O)c2c(c1)O[C@H](c1ccccc1)CC2=O` [PINOSTROBIN], the IC50 with Plasmodium falciparum [23] was greater than 100000 nM.

As for `CC(C)c1ccc2c(c1)CC[C@H]1[C@](C)(CO)CCC[C@]21C` [POMIFERIN A], the IC50 with Plasmodium falciparum [24] worked out at 25600 nM; in experiment [25], 28000 nM.

Regarding `Cc1cc(=O)c(O)cc2c1C[C@H]1CC(C)(C)/C=C/C[C@@]3(C)Oc4cc(O)c(=O)cc(C)c4C[C@@H]3C[C@H](O)[C@]1(C)O2` [PYCNIDIONE], the IC50 in the experiment on Plasmodium falciparum [26] stood at 280 nM; in the experiment on Plasmodium falciparum [18] it was 750 nM; with Plasmodium falciparum [17] it was 370 nM.

Turning to `C=C1C(=O)O[C@@H]2/C=C(/C)C(=O)/C=C/[C@](C)(O)C[C@@H](OC(=O)C(C)C)[C@@H]12` [TAGITININ C], the IC50 with Plasmodium falciparum [27] stood at 0.33 µg/mL (≈ 0.947 µM).

In the case of `COc1cc(O)cc2c1c(=O)c1ccccc1n2C` [TEGERRARDIN A], the midpoint of inhibition in the experiment with Plasmodium falciparum [28], the IC50, lay at 12300 nM.
